Measurements from ChEMBL document CHEMBL1909046, “DrugMatrix in vitro pharmacology data”.

Assays:
[1] = biological target: T1, Neuropeptide Y receptor type 2 (Homo sapiens, UniProt P49146); format: cell membranes, Membrane; details: kan-ts; also: in other assays of this panel Not Active means under 50% inhibition at 10 µM
T1 sequence (P49146 whole entry): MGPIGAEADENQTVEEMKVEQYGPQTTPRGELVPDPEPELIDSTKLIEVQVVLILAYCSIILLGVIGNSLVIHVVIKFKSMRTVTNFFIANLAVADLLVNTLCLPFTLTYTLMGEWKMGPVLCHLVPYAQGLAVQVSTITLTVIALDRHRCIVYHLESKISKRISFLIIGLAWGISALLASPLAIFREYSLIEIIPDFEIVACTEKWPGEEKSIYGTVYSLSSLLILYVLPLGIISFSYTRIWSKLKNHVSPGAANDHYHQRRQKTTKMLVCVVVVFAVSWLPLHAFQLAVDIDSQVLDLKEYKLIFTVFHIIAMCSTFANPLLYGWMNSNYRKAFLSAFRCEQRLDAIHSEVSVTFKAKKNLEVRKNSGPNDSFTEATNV

[2] = biological target: Melanocortin receptor 4 (Homo sapiens, UniProt P32245); format: cell membranes, Membrane; details: hek293; also: in other assays of this panel Not Active means under 50% inhibition at 10 µM
Chain of Melanocortin receptor 4 (P32245 whole entry): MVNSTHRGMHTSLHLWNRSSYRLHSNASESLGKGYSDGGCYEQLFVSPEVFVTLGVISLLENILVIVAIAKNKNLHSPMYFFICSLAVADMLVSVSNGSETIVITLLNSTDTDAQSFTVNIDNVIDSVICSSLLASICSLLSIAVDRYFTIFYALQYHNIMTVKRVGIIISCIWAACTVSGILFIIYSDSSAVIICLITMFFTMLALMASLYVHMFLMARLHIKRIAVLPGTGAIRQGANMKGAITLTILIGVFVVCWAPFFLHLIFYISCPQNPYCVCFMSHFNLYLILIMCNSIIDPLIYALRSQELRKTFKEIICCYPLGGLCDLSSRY

[3] = biological target: Tyrosine-protein kinase Fyn (Homo sapiens, UniProt P06241); assay: biochemical; format: cell-based, Insect cells;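 also: enzymatic inhibition of Fyn kinase activity measured with Poly(Glu:Tyr) as the phosphorylation substrate; in other assays of this panel Not Active means under 50% inhibition at 10 µM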
Chain of Tyrosine-protein kinase Fyn (P06241 whole entry): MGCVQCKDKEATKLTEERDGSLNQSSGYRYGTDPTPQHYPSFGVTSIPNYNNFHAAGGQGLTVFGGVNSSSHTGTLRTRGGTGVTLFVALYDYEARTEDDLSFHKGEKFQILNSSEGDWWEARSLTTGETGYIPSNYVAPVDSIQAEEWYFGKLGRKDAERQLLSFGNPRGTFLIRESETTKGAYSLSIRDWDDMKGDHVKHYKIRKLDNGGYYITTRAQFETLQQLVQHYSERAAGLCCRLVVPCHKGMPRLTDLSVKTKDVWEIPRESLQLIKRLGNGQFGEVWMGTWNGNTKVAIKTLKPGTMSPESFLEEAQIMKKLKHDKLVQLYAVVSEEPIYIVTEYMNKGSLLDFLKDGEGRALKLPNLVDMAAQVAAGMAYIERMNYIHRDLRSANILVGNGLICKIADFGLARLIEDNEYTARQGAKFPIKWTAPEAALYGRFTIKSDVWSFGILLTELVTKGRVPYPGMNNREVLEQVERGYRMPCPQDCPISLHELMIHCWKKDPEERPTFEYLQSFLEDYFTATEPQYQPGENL

[4] = biological target: Mitogen-activated protein kinase 3 (Homo sapiens, UniProt P27361); assay: DRUGMATRIX: Protein Serine/Threonine Kinase, ERK1 enzyme inhibition (substrate: Myelin Basic Protein); set-up: species or system Escherichia coli; details: Not Active = under 50% inhibition at 10 µM
Chain of Mitogen-activated protein kinase 3 (P27361 whole entry): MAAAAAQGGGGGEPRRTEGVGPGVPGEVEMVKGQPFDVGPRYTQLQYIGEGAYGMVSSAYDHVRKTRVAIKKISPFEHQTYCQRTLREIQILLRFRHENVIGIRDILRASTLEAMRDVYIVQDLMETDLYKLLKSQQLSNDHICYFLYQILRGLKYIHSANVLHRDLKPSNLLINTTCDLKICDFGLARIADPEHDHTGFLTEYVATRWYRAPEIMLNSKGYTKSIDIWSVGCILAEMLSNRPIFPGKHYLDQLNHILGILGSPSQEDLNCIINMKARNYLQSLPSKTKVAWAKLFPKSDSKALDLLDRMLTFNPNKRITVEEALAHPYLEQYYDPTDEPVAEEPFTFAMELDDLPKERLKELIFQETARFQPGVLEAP

[5] = biological target: Beta-1 adrenergic receptor (Homo sapiens, UniProt P08588); assay: DRUGMATRIX: Adrenergic beta1 radioligand binding (ligand: [125I] Cyanopindolol); format: cell membranes, CHO-K1, Membrane; details: Not Active = under 50% inhibition at 10 µM
Chain of Beta-1 adrenergic receptor (P08588 whole entry): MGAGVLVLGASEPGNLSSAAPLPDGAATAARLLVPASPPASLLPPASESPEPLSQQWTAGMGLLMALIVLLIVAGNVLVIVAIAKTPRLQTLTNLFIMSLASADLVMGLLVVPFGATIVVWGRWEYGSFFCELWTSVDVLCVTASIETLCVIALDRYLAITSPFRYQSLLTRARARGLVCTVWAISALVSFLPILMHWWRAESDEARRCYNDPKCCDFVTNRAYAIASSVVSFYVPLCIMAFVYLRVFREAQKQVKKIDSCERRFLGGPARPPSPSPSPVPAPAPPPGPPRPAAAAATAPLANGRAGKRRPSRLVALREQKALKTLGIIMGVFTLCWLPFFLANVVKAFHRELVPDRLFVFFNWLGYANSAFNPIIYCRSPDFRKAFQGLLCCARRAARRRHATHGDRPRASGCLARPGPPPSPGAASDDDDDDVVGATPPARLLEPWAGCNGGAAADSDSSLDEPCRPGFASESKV

[6] = biological target: Delta-type opioid receptor (Homo sapiens, UniProt P41143); format: cell membranes, HEK293, Membrane; details: hek293; also: in other assays of this panel Not Active means under 50% inhibition at 10 µM
Chain of Delta-type opioid receptor (P41143 whole entry): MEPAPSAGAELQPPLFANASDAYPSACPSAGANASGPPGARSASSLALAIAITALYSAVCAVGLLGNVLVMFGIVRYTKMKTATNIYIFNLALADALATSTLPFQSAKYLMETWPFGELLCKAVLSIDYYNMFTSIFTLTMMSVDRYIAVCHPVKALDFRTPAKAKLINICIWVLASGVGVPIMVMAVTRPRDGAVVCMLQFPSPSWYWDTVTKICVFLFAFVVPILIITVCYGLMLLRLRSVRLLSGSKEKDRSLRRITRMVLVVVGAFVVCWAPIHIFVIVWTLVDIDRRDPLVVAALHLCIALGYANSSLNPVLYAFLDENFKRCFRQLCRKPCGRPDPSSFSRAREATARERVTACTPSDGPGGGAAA

[7] = DRUGMATRIX: beta-Lactamase enzyme inhibition (substrate: Nitrocefin); set-up: species or system Bacillus cereus; details: Not Active = under 50% inhibition at 10 µM
[8] = biological target: Protein phosphatase 3 catalytic subunit alpha (Homo sapiens, UniProt Q08209); set-up: species or system Escherichia coli

Structure (SMILES) | IC50 [1] | IC50 [2] | IC50 ([3]; insect cells) | IC50 [4] | IC50 ([5]; cho-k1) | IC50 [6] | IC50 [7] | Ki [7] | IC50 [8] | IC50 ([5]; read-out: IC50) | Ki ([5]; read-out: Ki) | IC50 ([3]; read-out: IC50)
CC(N)C12CC3CC(CC(C3)C1)C2 (stereo unspecified) [RIMANTADINE] | Not Active | Not Active | Not Active | Not Active | Not Active | Not Active | Not Active | Not Active | Not Active |  |  | 
CN1C[C@H](CNC(=O)OCc2ccccc2)C[C@@H]2c3cccc4c3c(cn4C)C[C@H]21 [METERGOLINE] | Not Active | Not Active | Not Active | Not Active | Not Active | Not Active | Not Active | Not Active | Not Active |  |  | 
CO[C@@H]1[C@@H](OC)[C@H](C)[C@@](O)(CC(=O)O)O[C@H]1[C@H](C)[C@H]1O[C@@]2(CC[C@@](C)([C@H]3CC[C@@](C)([C@@H]4O[C@@H]([C@H]5O[C@](C)(O)[C@H](C)C[C@@H]5C)C[C@@H]4O[C@@H]4C[C@H](OC)[C@@H](OC)[C@H](C)O4)O3)O2)C[C@H](O)[C@H]1C.N [MADURAMICIN] | Not Active | Not Active | Not Active | Not Active | Not Active | Not Active | Not Active | Not Active | Not Active |  |  | 
CCOC(=O)C1=C(C)NC(C)=C(C(=O)OCC)C1c1ccccc1/C=C/C(=O)OC(C)(C)C [LACIDIPINE] | Not Active | Not Active | Not Active | Not Active | Not Active | Not Active | Not Active | Not Active | Not Active |  |  | 
CC(C)(C)NC[C@H](O)COc1cccc2c1CCCC2=O [LEVOBUNOLOL] | Not Active | Not Active | Not Active | Not Active |  | Not Active | Not Active | Not Active | Not Active | 6.9 nM | 3.99 nM | 
Cc1[nH]c(=O)c(C#N)cc1-c1ccncc1 [MILRINONE] | Not Active | Not Active | Not Active | Not Active | Not Active | Not Active | Not Active | Not Active | Not Active |  |  | 
C1CCN2C[C@@H]3C[C@@H](CN4CCCC[C@@H]34)[C@H]2C1 [SPARTEINE] | Not Active | Not Active | Not Active | Not Active | Not Active | Not Active | Not Active | Not Active | Not Active |  |  | 
Cc1cnc(NC(=O)C2=C(O)c3ccccc3S(=O)(=O)N2C)s1 [MELOXICAM] | Not Active | Not Active | Not Active | Not Active | Not Active | Not Active | Not Active | Not Active | Not Active |  |  | 
CO[C@@]12[C@H](COC(N)=O)C3=C(C(=O)C(C)=C(N)C3=O)N1C[C@@H]1N[C@@H]12 [MITOMYCIN] | Not Active | Not Active | Not Active | Not Active | Not Active | Not Active | Not Active | Not Active | Not Active |  |  | 
CC(Cl)(Cl)Cl [TRICHLOROETHANE] | Not Active | Not Active | Not Active | Not Active | Not Active | Not Active | Not Active | Not Active | Not Active |  |  | 
O=[As][O-].[Na+] [SODIUM ARSENITE] | Not Active | Not Active | Not Active | Not Active | Not Active | Not Active | Not Active | Not Active | Not Active |  |  | 
Cc1ccc(Cl)c(Nc2ccccc2C(=O)O)c1Cl [MECLOFENAMIC ACID] | Not Active | Not Active | Not Active | Not Active | Not Active | Not Active | Not Active | Not Active | Not Active |  |  | 
Cc1ccc(S(=O)(=O)NC(=O)NN2CCCCCC2)cc1 [TOLAZAMIDE] | Not Active | Not Active | Not Active | Not Active | Not Active | Not Active | Not Active | Not Active | Not Active |  |  | 
O=C(O)c1cc(/N=N/c2ccc(S(=O)(=O)Nc3ccccn3)cc2)ccc1O [SULFASALAZINE] | Not Active | Not Active | Not Active | Not Active | Not Active | Not Active | Not Active | Not Active | Not Active |  |  | 
CC(=O)O[C@]1(C(C)=O)CC[C@H]2[C@@H]3C[C@H](C)C4=CC(=O)CC[C@]4(C)[C@H]3CC[C@@]21C [MEDROXYPROGESTERONE ACETATE] | Not Active | Not Active | Not Active | Not Active | Not Active | Not Active | Not Active | Not Active | Not Active |  |  | 
CC[C@H](C)C(=O)O[C@H]1CCC=C2C=C[C@H](C)[C@H](CC[C@@H]3C[C@@H](O)CC(=O)O3)[C@H]21 [MEVASTATIN] | Not Active | Not Active | Not Active | Not Active | Not Active | Not Active | Not Active | Not Active | Not Active |  |  | 
CCN(CC)CCNC(=O)c1cc(Cl)c(N)cc1OC [METOCLOPRAMIDE] | Not Active | Not Active | Not Active | Not Active | Not Active | Not Active | Not Active | Not Active | Not Active |  |  | 
Cc1nnc(NS(=O)(=O)c2ccc(N)cc2)s1 [SULFAMETHIZOLE] | Not Active | Not Active | Not Active | Not Active | Not Active | Not Active | Not Active | Not Active | Not Active |  |  | 
CCC(C)(C)C(=O)O[C@H]1C[C@@H](C)C=C2C=C[C@H](C)[C@H](CC[C@@H]3C[C@@H](O)CC(=O)O3)[C@H]21 [SIMVASTATIN] | Not Active | Not Active | Not Active | Not Active | Not Active | Not Active | Not Active | Not Active | Not Active |  |  | 
CN1C(=O)OC(C)(C)C1=O [TRIMETHADIONE] | Not Active | Not Active | Not Active | Not Active | Not Active | Not Active | Not Active | Not Active | Not Active |  |  | 
CC[C@H](C)[C@@H](CO[C@@H](Cc1ccccc1)C(=O)N[C@@H](CCS(C)(=O)=O)C(=O)OC(C)C)NC[C@@H](N)CS | Not Active | Not Active |  | Not Active | Not Active | Not Active | Not Active | Not Active | Not Active |  |  | 813 nM
OC[C@@H](O)[C@@H](O)[C@H](O)[C@H](O)CO [MANNITOL] | Not Active | Not Active | Not Active | Not Active | Not Active | Not Active | Not Active | Not Active | Not Active |  |  | 
Cc1cn([C@H]2C=C[C@@H](CO)O2)c(=O)[nH]c1=O [STAVUDINE] | Not Active | Not Active | Not Active | Not Active | Not Active | Not Active | Not Active | Not Active | Not Active |  |  | 
C[N+]1(C)[C@@H]2C[C@@H](OC(=O)[C@H](CO)c3ccccc3)C[C@H]1[C@@H]1O[C@@H]12.[Br-] [METHSCOPOLAMINE BROMIDE] | Not Active | Not Active | Not Active | Not Active | Not Active | Not Active | Not Active | Not Active | Not Active |  |  | 
CC1=C(/C=C/C(C)=C/C=C/C(C)=C/C(=O)O)C(C)(C)CCC1 [TRETINOIN] | Not Active | Not Active | Not Active | Not Active | Not Active | Not Active | Not Active | Not Active | Not Active |  |  | 
